Literature values in patent US9974867B2, “Cytotoxic benzodiazepine derivatives” (priority 2014, dated 2018).

Settings: Phase I clinical evaluation; cited from earlier work

Question: Which maximum tolerated dose does the source give for `C=C1C[C@H]2C=Nc3cc(OCCCOc4cc5c(cc4OC)C(=O)N4CC(=C)C[C@H]4C=N5)c(OC)cc3C(=O)N2C1` [SJG-136] here?
Answer: 45 μg/m^2
